ChEMBL document CHEMBL4371060, “Identification of fluorinated (R)-(-)-aporphine derivatives as potent and selective ligands at serotonin 5-HT2C receptor” (Bioorg Med Chem Lett, 2019)

What was measured:
[1] = Selectivity ratio of Ki for displacement of [3H]DOI from recombinant human 5HT2B receptor expressed in HEK293T cell membranes to Ki for displacement of [3H]DOI from recombinant human 5HT2C receptor expressed in HEK293T cell membranes
[2] = molecular target: 5-hydroxytryptamine receptor 2A (Homo sapiens, UniProt P28223); test: Displacement of [3H]ketanserin from 5HT2A receptor (unknown origin) expressed in HEK293T cell membranes
[3] = molecular target: 5-hydroxytryptamine receptor 2B (Homo sapiens, UniProt P41595); test: Displacement of [3H]LSD from 5HT2B receptor (unknown origin) expressed in HEK293 cell membranes
[4] = molecular target: T1, 5-hydroxytryptamine receptor 2C (Homo sapiens, UniProt P28335); test: Displacement of [3H]mesulergine from 5HT2C receptor (unknown origin) expressed in HEK293T cell membranes
T1 sequence (P28335 whole entry): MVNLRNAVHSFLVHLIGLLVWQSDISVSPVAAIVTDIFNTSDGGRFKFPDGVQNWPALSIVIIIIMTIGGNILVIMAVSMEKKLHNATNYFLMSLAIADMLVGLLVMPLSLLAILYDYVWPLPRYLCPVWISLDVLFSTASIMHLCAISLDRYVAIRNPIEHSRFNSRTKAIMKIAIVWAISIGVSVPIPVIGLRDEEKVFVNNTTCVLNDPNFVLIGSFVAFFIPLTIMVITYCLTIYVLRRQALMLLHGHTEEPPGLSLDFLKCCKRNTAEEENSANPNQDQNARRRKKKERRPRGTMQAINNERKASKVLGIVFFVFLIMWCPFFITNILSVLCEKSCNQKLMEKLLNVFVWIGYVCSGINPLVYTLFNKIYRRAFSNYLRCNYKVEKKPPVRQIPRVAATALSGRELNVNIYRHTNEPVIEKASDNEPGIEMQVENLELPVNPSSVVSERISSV

[5] = molecular target: Serotonin 2 receptors; 5-HT2a & 5-HT2c (Homo sapiens) (UniProt P28223+P28335); test: Selectivity ratio of Ki for displacement of [3H]ketanserin from 5HT2A receptor (unknown origin) expressed in HEK293T cell membranes to Ki for displacement of [3H]mesulergine from 5HT2C receptor (unknown origin) expressed in HEK293T cell membranes
Homo sapiens = species on record: Homo sapiens; test: Selectivity ratio of Ki for displacement of [3H]LSD from 5HT2B receptor (unknown origin) expressed in HEK293 cell membranes to Ki for displacement of [3H]mesulergine from 5HT2C receptor (unknown origin) expressed in HEK293T cell membranes

Sequence of 5-hydroxytryptamine receptor 2B (P41595 whole entry): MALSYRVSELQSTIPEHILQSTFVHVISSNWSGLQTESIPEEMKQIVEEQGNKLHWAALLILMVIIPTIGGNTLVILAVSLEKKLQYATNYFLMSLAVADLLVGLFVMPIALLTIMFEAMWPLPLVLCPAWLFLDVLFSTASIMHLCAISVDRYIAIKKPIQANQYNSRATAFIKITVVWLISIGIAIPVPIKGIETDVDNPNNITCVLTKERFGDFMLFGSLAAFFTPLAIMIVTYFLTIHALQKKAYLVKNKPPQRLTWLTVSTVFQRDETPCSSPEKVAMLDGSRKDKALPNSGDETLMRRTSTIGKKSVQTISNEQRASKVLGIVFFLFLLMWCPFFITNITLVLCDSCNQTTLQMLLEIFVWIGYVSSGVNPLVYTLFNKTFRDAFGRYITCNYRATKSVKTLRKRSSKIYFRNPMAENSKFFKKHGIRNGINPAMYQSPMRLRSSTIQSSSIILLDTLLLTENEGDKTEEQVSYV
Sequence of Serotonin 2 receptors; 5-HT2a & 5-HT2c (Homo sapiens) (P28223 whole entry, looked up, one chain of several): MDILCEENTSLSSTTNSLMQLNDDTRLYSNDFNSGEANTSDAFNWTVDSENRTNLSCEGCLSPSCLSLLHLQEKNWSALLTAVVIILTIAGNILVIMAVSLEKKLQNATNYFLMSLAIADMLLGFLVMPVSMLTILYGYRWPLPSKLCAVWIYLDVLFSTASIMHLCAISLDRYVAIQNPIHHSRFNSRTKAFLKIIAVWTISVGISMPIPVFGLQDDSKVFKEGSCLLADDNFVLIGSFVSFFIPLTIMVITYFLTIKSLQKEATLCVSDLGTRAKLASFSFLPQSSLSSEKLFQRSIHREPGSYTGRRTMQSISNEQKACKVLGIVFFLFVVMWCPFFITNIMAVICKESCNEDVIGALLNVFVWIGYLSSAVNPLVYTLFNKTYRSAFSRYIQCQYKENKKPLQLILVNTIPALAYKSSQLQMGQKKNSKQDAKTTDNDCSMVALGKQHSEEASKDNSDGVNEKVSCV
Sequence of 5-hydroxytryptamine receptor 2A (P28223 whole entry): as the sequence (P28223 whole entry, looked up, one chain of several) above

| Compound | Ki [1] [µM] | Ki [2] [µM] | Ki [3] [µM] | Ki [4] [µM] | Ratio Ki [5] | Ratio Ki (Homo sapiens) |
| --- | --- | --- | --- | --- | --- | --- |
| C[C@H]1CNCCc2ccc(Cl)cc21 [LORCASERIN] | 0.012 | – | – | – | – | – |
| COc1cc2c3c(c1)-c1c(cccc1OCCCF)C[C@H]3N(C)CC2 | – | 0.434 | 0.422 | 0.338 | 1.3 | 1.2 |
| CCCN1CCc2cc(OC)cc3c2[C@H]1Cc1cccc(OCCF)c1-3 | – | > 10 | 3.04 | > 10 | – | – |
| CCCN1CCc2cc(OC)cc3c2[C@H]1Cc1cccc(OCCCF)c1-3 | – | > 10 | > 10 | > 10 | – | – |
| COc1cc2c3c(c1)-c1c(cccc1OCc1ccc(F)cc1)C[C@H]3N(C)CC2 | – | 2.31 | 2.68 | > 10 | – | – |
| COc1cc2c3c(c1)-c1c(cccc1OC(=O)c1ccc(F)cc1)C[C@H]3N(C)CC2 | – | 0.45 | 0.102 | 0.032 | 14 | 3.2 |
| CCCN1CCc2cc(OC)cc3c2[C@H]1Cc1cccc(OCc2ccc(F)cc2)c1-3 | – | > 10 | > 10 | > 10 | – | – |
| CCCN1CCc2cc(OC)cc3c2[C@H]1Cc1cccc(OC(=O)c2ccc(F)cc2)c1-3 | – | 0.414 | 0.106 | 0.024 | 17 | 4.4 |
| COc1cc2c3c(c1)-c1c(cccc1OCCF)C[C@H]3N(C)CC2 | – | 1.14 | 0.552 | 0.343 | 3.3 | 1.6 |
